Test results reported in ChEMBL document CHEMBL1151975, “Isolation, structure, and antibacterial activities of lucensimycins D-G, discovered from Streptomyces lucensis MA7349 using an antisense strategy” (2009).
In brackets after ≈: the same amount, converted by molar mass. Activity calls are given as the source filed them. The rule behind the calls is not given here.

What was measured:
Streptococcus pneumoniae = test: Antimicrobial activity against Streptococcus pneumoniae CL 2883; assay type: functional
Staphylococcus aureus [1] = test: Antimicrobial activity against Staphylococcus aureus Smith at 250 ug/ml; assay type: functional, organism-based
Escherichia coli = test: Antimicrobial activity against Escherichia coli at 250 ug/ml; assay type: functional, organism-based
Enterococcus faecalis = test: Antimicrobial activity against Enterococcus faecalis at 250 ug/ml; assay type: functional, organism-based
Bacillus subtilis = test: Antimicrobial activity against Bacillus subtilis at 250 ug/ml; assay type: functional, organism-based
Haemophilus influenzae = test: Antimicrobial activity against Haemophilus influenzae at 250 ug/ml; assay type: functional, organism-based
Candida albicans = test: Antimicrobial activity against Candida albicans at 250 ug/ml; assay type: functional, organism-based
Staphylococcus aureus [2] = test: Antimicrobial activity against Staphylococcus aureus EP167 at 0.5 mg/ml by two-plate assay; assay type: functional, organism-based
Streptomyces noursei = test: Antimicrobial activity against Streptomyces albulus MJ202-72F3; assay type: functional
Staphylococcus aureus [3] = test: Antimicrobial activity against Staphylococcus aureus bearing antisense rpsD gene by two-plate assay; assay type: functional
Staphylococcus aureus [4] = test: Antimicrobial activity against Staphylococcus aureus Smith; assay type: functional

| MIC (Streptomyces noursei) [µg/mL] | MIC (Streptococcus pneumoniae) [µg/mL] | MIC (Staphylococcus aureus [4]) [µg/mL] | Compound | Activity (Streptococcus pneumoniae) | Activity (Staphylococcus aureus [1]) | Activity (Escherichia coli) | Activity (Enterococcus faecalis) | Activity (Bacillus subtilis) | Activity (Haemophilus influenzae) | Activity (Candida albicans) | Activity (Staphylococcus aureus [2]) | inhibition zone (IZ) (Staphylococcus aureus [3]) [mm] |
| --- | --- | --- | --- | --- | --- | --- | --- | --- | --- | --- | --- | --- |
| – | – | – | CC(=O)N[C@H](CSC[C@@H]1OC(=O)[C@@]2(C1=O)C(=O)[C@@]1(C)[C@@H](C=C[C@H]3[C@H](O)[C@@H](C)[C@H](OC(C)=O)C[C@@H]31)C[C@H]2/C=C/C=C/C=C/C(=O)O)C(=O)N[C@H]1[C@@H](O[C@@H]2[C@@H](O)[C@H](O)[C@@H](O)[C@H](O)[C@@H]2O)O[C@@H](CO)[C@@H](O)[C@@H]1O | inactive | inactive | inactive | inactive | inactive | inactive | inactive | Active | – |
| 25 (≈ 48.5 µM) | – | – | CCC(O)C(C)/C=C/C=C/C(O)CC1C=CC2CC(C)CC(C)C2C1(C)C(=O)C1=C(O)C(OC)NC1=O (stereo not drawn) [DELAMINOMYCIN B] | – | – | – | – | – | – | – | – | – |
| – | 250 (≈ 363 µM) | – | CC(=O)N[C@H](CSC[C@@H]1OC(=O)[C@@]2(C1=O)C(=O)[C@@]1(C)[C@@H](C=C[C@H]3[C@H](O)[C@@H](C)[C@H](OC(C)=O)C[C@@H]31)C[C@H]2/C=C/C=C/C=C/C(=O)O)C(=O)O [LUCENSIMYCIN D] | – | inactive | – | – | – | – | – | – | 12 |
| 25 (≈ 49.8 µM) | – | – | CCC(O)C(C)/C=C/C=C/C(O)CC1C=CC2CC(C)CC(C)C2C1(C)C(=O)C1=C(O)C(O)NC1=O (stereo not drawn) [DELAMINOMYCIN A] | – | – | – | – | – | – | – | – | – |
| 25 (≈ 51.5 µM) | – | – | CCC(O)C(C)/C=C/C=C/C(O)CC1C=CC2CC(C)CC(C)C2C1(C)C(=O)C1=C(O)CNC1=O (stereo not drawn) [DELAMINOMYCIN C] | – | – | – | – | – | – | – | – | – |
| – | – | – | C=C1OC(=O)[C@@]2(C1=O)C(=O)[C@@]1(C)[C@@H](C=C[C@H]3[C@H](O)[C@@H](C)[C@H](OC(C)=O)C[C@@H]31)C[C@H]2/C=C/C=C/C=C/C(=O)O [LUCENSIMYCIN A] | inactive | inactive | inactive | inactive | inactive | inactive | inactive | Active | 12 |
| – | 8 (≈ 11.6 µM) | 32 (≈ 46.5 µM) | CC(=O)N[C@H](CSC[C@H]1OC(=O)[C@@]2(C1=O)C(=O)[C@@]1(C)[C@@H](C=C[C@H]3[C@H](O)[C@@H](C)[C@H](OC(C)=O)C[C@@H]31)C[C@H]2/C=C/C=C/C=C/C(=O)O)C(=O)O [LUCENSIMYCIN E] | – | – | – | – | – | – | – | – | 12 |
| – | – | – | CC(=O)O[C@@H]1C[C@H]2[C@@H](C=C[C@H]3C[C@@H](/C=C/C=C/C=C/C(=O)O)[C@@]4(C(=O)O[C@@H](CO)C4=O)C(=O)[C@@]32C)[C@H](O)[C@H]1C | inactive | inactive | inactive | inactive | inactive | inactive | inactive | – | – |
| – | – | – | C=C(OC(=O)[C@@H]1C(=O)[C@@]2(C)[C@@H](C=C[C@H]3[C@H](O)[C@@H](C)[C@H](OC(C)=O)C[C@@H]32)C[C@H]1/C=C/C=C/C=C/C(=O)O)C(=O)O | inactive | inactive | inactive | inactive | inactive | inactive | inactive | – | – |
| – | – | – | CC(=O)N[C@H](CSC[C@H]1OC(=O)[C@@]2(C1=O)C(=O)[C@@]1(C)[C@@H](C=C[C@H]3[C@H](O)[C@@H](C)[C@H](OC(C)=O)C[C@@H]31)C[C@H]2/C=C/C=C/C=C/C(=O)O)C(=O)N[C@H]1[C@@H](O[C@@H]2[C@@H](O)[C@H](O)[C@@H](O)[C@H](O)[C@@H]2O)O[C@@H](CO)[C@@H](O)[C@@H]1O | inactive | inactive | inactive | inactive | inactive | inactive | inactive | Active | – |
